From PubChem BioAssay (NCI)
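Exposure lasted 48 hours, with cells grown in 96-well plates and compounds tested at five concentrations. At the TGI there is no net growth.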

How the values were obtained:
Assay in all cases: DTP human tumour cell line panel, 48 h
786-0 renal = system: 786-0 renal
ACHN renal = system: ACHN renal
BT-549 breast = system: BT-549 breast
COLO 205 colon = system: COLO 205 colon
HCC-2998 colon = system: HCC-2998 colon
HOP-62 NSCLC = system: HOP-62 NSCLC
HT29 colon = system: HT29 colon
KM12 colon = system: KM12 colon
MDA-MB-231 breast = system: MDA-MB-231 breast
MDA-MB-435 = system: MDA-MB-435
MOLT-4 leukemia = system: MOLT-4 leukemia
NCI-H226 lung = system: NCI-H226 lung
OVCAR-3 ovarian = system: OVCAR-3 ovarian
SF-268 CNS = system: SF-268 CNS
SNB-75 CNS = system: SNB-75 CNS
U251 CNS = system: U251 CNS
UACC-257 melanoma = system: UACC-257 melanoma
DU-145 prostate = system: DU-145 prostate
HCT-15 colon = system: HCT-15 colon
TK-10 renal = system: TK-10 renal

| SMILES | TGI (786-0 renal) [µM] | TGI (ACHN renal) [µM] | TGI (BT-549 breast) [µM] | TGI (COLO 205 colon) [µM] | TGI (HCC-2998 colon) [µM] | TGI (HOP-62 NSCLC) [µM] | TGI (HT29 colon) [µM] | TGI (KM12 colon) [µM] | TGI (MDA-MB-231 breast) [µM] | TGI (MDA-MB-435) [µM] | TGI (MOLT-4 leukemia) [µM] | TGI (NCI-H226 lung) [µM] | TGI (OVCAR-3 ovarian) [µM] | TGI (SF-268 CNS) [µM] | TGI (SNB-75 CNS) [µM] | TGI (U251 CNS) [µM] | TGI (UACC-257 melanoma) [µM] | TGI (DU-145 prostate) [µM] | TGI (HCT-15 colon) [µM] | TGI (TK-10 renal) [µM] |
| --- | --- | --- | --- | --- | --- | --- | --- | --- | --- | --- | --- | --- | --- | --- | --- | --- | --- | --- | --- | --- |
| C(/C=N/NC1=NCCCN1)=N\NC1=NCCCN1 | > 100 | > 100 | > 100 | > 100 | > 100 | > 100 | > 100 | > 100 | > 100 | > 100 | > 100 | > 100 | > 100 | > 100 | > 100 | > 100 | > 100 |  |  |  |
| Cc1ncc([N+](=O)[O-])n1CCNC(=O)CCn1ccnc1[N+](=O)[O-] | > 100 | > 100 | > 100 | > 100 | > 100 | > 100 | > 100 | > 100 |  | > 100 | > 100 | > 100 | > 100 | > 100 | > 100 | > 100 | > 100 | > 100 | > 100 | > 100 |
| COc1ccccc1N1C(=O)/C(=C\c2cc(OC)c(OC)c(OC)c2)S(=O)(=O)C1c1ccccc1 (configuration not stated) | > 100 | > 100 | > 100 | > 100 | > 100 | > 100 |  | > 100 | > 100 | 41.3 | > 100 | > 100 | > 100 | > 100 |  | > 100 | > 100 | > 100 | > 100 | > 100 |
| Cc1ccc(S(=O)(=O)n2cnc(CC(NC(=O)C3CCC(=O)N3C(=O)OCc3ccccc3)C(=O)N3CCCC3C(=O)NN)c2)cc1 (configuration not stated) | > 100 | > 100 | > 100 | > 100 | > 100 | > 100 | > 100 | > 100 | > 100 |  | > 100 | > 100 |  |  | > 100 | > 100 | > 100 |  | > 100 | > 100 |
| CNC(=S)NNC1=NCCCCN1 | > 100 | > 100 | > 100 | > 100 | > 100 | > 100 | > 100 | > 100 | > 100 | > 100 | > 100 | > 100 | > 100 | > 100 | > 100 | > 100 | > 100 |  | > 100 | > 100 |
| NC(=S)N/N=C(/C(=O)Nc1nc2ccc([N+](=O)[O-])cc2s1)C1C(=O)NC(=S)NC1=O | > 100 | > 100 | > 100 | > 100 | > 100 |  | > 100 | > 100 | > 100 | > 100 | > 100 | > 100 | > 100 | > 100 |  | > 100 | > 100 | > 100 | > 100 |  |
| O=S1(=O)OCCCOS(=O)(=O)C1Br | > 100 | > 100 | > 100 | > 100 | > 100 | > 100 | > 100 | > 100 |  | > 100 | > 100 | > 100 | > 100 | > 100 | > 100 | > 100 | > 100 | > 100 | > 100 | > 100 |
| O=C1NC(Cc2c[nH]c3ccccc23)C(=O)N2C(c3ccccc3)c3[nH]c4ccccc4c3C[C@@H]12 (some centres not stated) | 39.1 | 89.2 | 46.4 | 45.9 |  | 38.2 | 48.6 | 40 | 42.2 | 39.7 | 42.2 | 88.9 | 35.7 | 95.7 |  | 39.2 | 51.6 | > 100 | 54.3 | 91.4 |
| Cc1cc2nc3c(C#N)c(-c4ccccc4)cc(Nc4ccc(F)cc4)n3c2cc1C | 22.5 | > 100 | 56.3 | > 100 |  | 36.6 | > 100 | > 100 | 51.1 | > 100 | > 100 | 73.7 | 46.4 | 27.9 | 57.5 | 16.3 | > 100 |  | > 100 | 39.3 |
| COc1ccc(N2C(=O)/C(=C\c3cc(OC)c(OC)c(OC)c3)S(=O)(=O)C2c2ccccc2)cc1 (configuration not stated) | > 100 | > 100 | > 100 | 41.6 | > 100 | > 100 |  | > 100 | > 100 | 72.3 | > 100 | > 100 | > 100 | > 100 |  | > 100 | > 100 | > 100 | > 100 | > 100 |
| C/C(=N/NC(=S)N1CCCC1)c1cccc(/C(C)=N\NC(=S)N2CCCC2)n1 | 2.66 | 3.4 | 5.13 | > 100 | 2.86 | 0.891 | 5.1 | 4.46 | 3.23 | 3.13 | 2.18 | 3.76 | 2.63 | 14.7 |  | 4.14 |  | 38.5 | 4.96 | 3.71 |
